Source: ChEMBL document CHEMBL4483862, “Open-source discovery of chemical leads for next-generation chemoprotective antimalarials” (2018)

Test system: Plasmodium berghei
Assay: Luciferase/luciferin-expressing antifolate-resistant parasites were used to infect a culture of HepG2 cells that were pre-incubated with compounds. Infected hepatocytes emit light due to the luciferase reaction. Assay results are presented as the percent inhibition of light emission compared to control. […]
Type: functional
Settings: sporozoite; for IC90: read-out: LUCIFERASE INFECTION ASSAY - IC90
[1] = read-out: LUCIFERASE INFECTION ASSAY - IC50

Row | SMILES | IC90 | IC50 [1] | other results
1 | Cc1sc2ncnc(NC(C)c3ccc(-n4ccnc4)cc3)c2c1C (configuration not stated) | > 10 µM | – | IC50 (HEPG2TOX_HILL_SLOPE 0.71, HEPG2TOX_R_SQUARED 0.913, PBLUC_HILL_SLOPE 1.13, PBLUC_R_SQUARED 0.519, read-out: LUCIFERASE INFECTION ASSAY - IC50): 2.6 µM
2 | COc1ccc(CNc2ccc3ncc(-c4ccc(OC)c(OC)c4)n3n2)cc1 | 4.78 µM | – | IC50 (HEPG2TOX_HILL_SLOPE 2.6, HEPG2TOX_R_SQUARED 0.69, PBLUC_HILL_SLOPE 12.3, PBLUC_R_SQUARED 0.459, read-out: LUCIFERASE INFECTION ASSAY - IC50): 4 µM
3 | Clc1ccccc1/C=N/Nc1nc(-c2cc(-c3ccccc3)no2)cs1 | > 8.66 µM | – | IC50 (PBLUC_HILL_SLOPE 1.1, PBLUC_R_SQUARED 0.687, read-out: LUCIFERASE INFECTION ASSAY - IC50): 6.48 µM
4 | COc1cccc(C(=O)Nc2ccc(Sc3cccc(C(F)(F)F)c3)c(C#N)c2)c1 | > 7.7 µM | > 7.7 µM | –
5 | O=S(=O)(Nc1cc(Cl)c(Cl)cc1Cl)c1cc(C(F)(F)F)cc(C(F)(F)F)c1 | 1.98 µM | – | IC50 (HEPG2TOX_HILL_SLOPE 2.48, HEPG2TOX_R_SQUARED 0.974, PBLUC_HILL_SLOPE 1.87, PBLUC_R_SQUARED 0.724, read-out: LUCIFERASE INFECTION ASSAY - IC50): 0.611 µM
6 | Clc1ccc2c(NCc3ccc(CN4CCOCC4)cc3)ccnc2c1 | 4.14 µM | – | IC50 (HEPG2TOX_HILL_SLOPE 2.51, 1.28, HEPG2TOX_R_SQUARED 0.778, 0.972, PBLUC_HILL_SLOPE 2.92, 9.52, PBLUC_R_SQUARED 0.401, 0.159, read-out: LUCIFERASE INFECTION ASSAY - IC50): 4.34 µM
7 | CCN(Cc1ccccc1)c1ccc(/C=N/N=C(N)N)cc1 | 5.13 µM | – | IC50 (HEPG2TOX_HILL_SLOPE 8.25, HEPG2TOX_R_SQUARED 0.944, PBLUC_HILL_SLOPE 2.7, PBLUC_R_SQUARED 0.838, read-out: LUCIFERASE INFECTION ASSAY - IC50): 2.27 µM
8 | CCn1nc(C(=O)OCC(=O)Nc2cc(S(=O)(=O)N3CCCCC3)ccc2Cl)c2ccccc2c1=O | > 10 µM | > 10 µM | –
9 | Cc1nc2ccccc2nc1SC(C)C(=O)c1c[nH]c2ccccc12 (configuration not stated) | 1.98 µM | – | IC50 (HEPG2TOX_HILL_SLOPE 0.739, HEPG2TOX_R_SQUARED 0.941, PBLUC_HILL_SLOPE 2.85, PBLUC_R_SQUARED 0.882, read-out: LUCIFERASE INFECTION ASSAY - IC50): 0.916 µM
10 | CCC(C)CNc1cc(C(=O)Nc2cccc(OC)c2)cc(S(=O)(=O)N2CCCC2)c1 (configuration not stated) | > 7.41 µM | – | IC50 (HEPG2TOX_HILL_SLOPE 12.2, HEPG2TOX_R_SQUARED 0.774, PBLUC_HILL_SLOPE 2.54, PBLUC_R_SQUARED 0.165, read-out: LUCIFERASE INFECTION ASSAY - IC50): 5.57 µM
11 | CCc1nnc(NC(=O)c2csc(Cc3ccccc3)n2)s1 | > 10 µM | 8.84 µM | –
12 | OCCCNc1nn2c(-c3cccc(Cl)c3)cnc2s1 | > 10.7 µM | – | IC50 (HEPG2TOX_HILL_SLOPE 8.79, HEPG2TOX_R_SQUARED 0.819, PBLUC_HILL_SLOPE 13.4, PBLUC_R_SQUARED 0.184, read-out: LUCIFERASE INFECTION ASSAY - IC50): 9.8 µM
13 | CC(C)Oc1cccc(-c2cn3c(-c4ccccc4Cl)cnc3cn2)c1 | > 9.07 µM | > 9.07 µM | –
14 | O=C(Cc1csc(NC(=O)c2ccccc2)n1)Nc1ncccc1O | > 10 µM | > 10 µM | –
15 | CCn1c(SCCOc2ccccc2Cl)nnc1-c1cc(-c2ccccc2)nc2ccccc12 | > 10 µM | – | IC50 (PBLUC_HILL_SLOPE 1.65, PBLUC_R_SQUARED 0.274, read-out: LUCIFERASE INFECTION ASSAY - IC50): > 10 µM
16 | O=C(Nc1cccc(F)c1)Nc1ccc2nc(Cc3ccccc3)nn2c1 | 1.35 µM | – | IC50 (HEPG2TOX_HILL_SLOPE 1.95, HEPG2TOX_R_SQUARED 0.988, PBLUC_HILL_SLOPE 12.2, PBLUC_R_SQUARED 0.455, read-out: LUCIFERASE INFECTION ASSAY - IC50): 1.12 µM
17 | CCn1c2ccccc2c2cc(NC(=O)COC(=O)C3CSC4(c5ccc(F)cc5)CCC(=O)N34)ccc21 (configuration not stated) | > 10 µM | – | IC50 (HEPG2TOX_HILL_SLOPE 7.81, HEPG2TOX_R_SQUARED 0.779, read-out: LUCIFERASE INFECTION ASSAY - IC50): > 10 µM
18 | COc1ccc(-c2csc3ncnc(N4CCN(c5ccccc5[N+](=O)[O-])CC4)c23)cc1 | > 10 µM | – | IC50 (HEPG2TOX_HILL_SLOPE 5.61, HEPG2TOX_R_SQUARED 0.324, PBLUC_HILL_SLOPE 1.94, 2.89, PBLUC_R_SQUARED 0.358, 0.293, read-out: LUCIFERASE INFECTION ASSAY - IC50): 6.64 µM
19 | COc1ccc(-c2cc(NC(=O)Cc3ccc(S(=O)(=O)N4CCCC4)s3)ccc2OC)cc1 | 4.64 µM | – | IC50 (FFLUC_HILL_SLOPE 14.7, FFLUC_R_SQUARED 0.565, HEPG2TOX_HILL_SLOPE 10.6, HEPG2TOX_R_SQUARED 0.932, PBLUC_HILL_SLOPE 12.2, PBLUC_R_SQUARED 0.78, read-out: LUCIFERASE INFECTION ASSAY - IC50): 3.88 µM
20 | CCOC(=O)c1ccc(-n2sccc2=O)cc1 | > 13.2 µM | > 13.2 µM | –
21 | FC(F)(F)c1ccc(NCCNc2ccc(C(F)(F)F)cn2)nc1 | 2.55 µM | 1.24 µM | –

Row | SMILES | IC90 | IC50 [1] | other results
22 | COc1cc(-c2nc3ccc(NC(=O)c4cccs4)cn3n2)cc(OC)c1OC | 6.23 µM | – | IC50 (PBLUC_HILL_SLOPE 2.1, PBLUC_R_SQUARED 0.836, read-out: LUCIFERASE INFECTION ASSAY - IC50): 2.19 µM
23 | COc1ccc2nc(N(Cc3ccccc3)C(=O)C3Cc4ccccc4C(=O)O3)sc2c1 (configuration not stated) | > 10 µM | > 10 µM | –
24 | Cc1noc(C)c1CSc1nc(C(C)(C)C)nc2c1c(=O)n(C)c(=O)n2C | > 10 µM | > 10 µM | –
25 | O=C(c1ccc(S(=O)(=O)C(F)(F)F)cc1)N1CCN(Cc2csc(-c3ccccc3)n2)CC1 | 4.21 µM | – | IC50 (HEPG2TOX_HILL_SLOPE 2.26, HEPG2TOX_R_SQUARED 0.817, PBLUC_HILL_SLOPE 12.1, PBLUC_R_SQUARED 0.456, read-out: LUCIFERASE INFECTION ASSAY - IC50): 3.51 µM
26 | CCC(C)(C)C1CCc2c(sc(NC(=O)CN3CCOCC3)c2C#N)C1 (configuration not stated) | 8.57 µM | – | IC50 (PBLUC_HILL_SLOPE 4.77, PBLUC_R_SQUARED 0.355, read-out: LUCIFERASE INFECTION ASSAY - IC50): 5.41 µM
27 | CCCCC(CC)Cn1c(SCc2nc(N)nc(N)n2)nnc1-c1ccc(Cl)cc1 (configuration not stated) | > 10 µM | > 10 µM | –
28 | Nn1c(SCc2cc(F)cc3c2OC(c2ccccc2)OC3)nnc1-c1ccc(OC(F)F)cc1 (configuration not stated) | > 10 µM | – | IC50 (FFLUC_HILL_SLOPE 12.2, FFLUC_R_SQUARED 0.768, read-out: LUCIFERASE INFECTION ASSAY - IC50): > 10 µM
29 | CCN(CC)c1ccc(NC(=O)c2c(-c3c(Cl)cccc3Cl)noc2C)c(N(CC)CC)n1 | > 6.73 µM | > 6.73 µM | –
30 | CN(C)c1cccc(Nc2nccc3[nH]c(-c4cccc(F)c4)cc23)c1 | 1.41 µM | – | IC50 (HEPG2TOX_HILL_SLOPE 2.36, HEPG2TOX_R_SQUARED 0.936, PBLUC_HILL_SLOPE 7.91, PBLUC_R_SQUARED 0.783, read-out: LUCIFERASE INFECTION ASSAY - IC50): 1.07 µM
31 | CCN(CC)S(=O)(=O)c1cccc(NC(=O)C23CC4CC(C2)CC(c2ccc(C)cc2)(C4)C3)c1 | > 10 µM | > 10 µM | –
32 | O=C(O)CSc1nc2ccccc2c(=O)n1-c1ccccc1Cl | > 10 µM | > 10 µM | –
33 | CN(C1=C(NC(=O)c2ccccc2)C(=O)c2ccccc2C1=O)C1CCS(=O)(=O)C1 (configuration not stated) | > 10 µM | – | IC50 (PBLUC_HILL_SLOPE 12.4, PBLUC_R_SQUARED 0.0349, read-out: LUCIFERASE INFECTION ASSAY - IC50): 9.32 µM
34 | COC(=O)c1c(C)[nH]c(C(=O)N2CCCN(Cc3ccc(C(F)(F)F)cc3)CC2)c1C | 3.51 µM | – | IC50 (HEPG2TOX_HILL_SLOPE 0.883, HEPG2TOX_R_SQUARED 0.94, PBLUC_HILL_SLOPE 33.9, PBLUC_R_SQUARED 0.31, read-out: LUCIFERASE INFECTION ASSAY - IC50): 3.29 µM
35 | OC(COc1ccc(Cl)c(Cl)c1)CN1CCC(Nc2nccc(C(F)(F)F)n2)CC1 (configuration not stated) | > 7.09 µM | – | IC50 (PBLUC_HILL_SLOPE 16.2, PBLUC_R_SQUARED 0.0623, read-out: LUCIFERASE INFECTION ASSAY - IC50): 6.96 µM
36 | CCCNC(=O)c1c(NC(=O)c2ccc(C(F)(F)F)cc2)nc2ccc(C)cn12 | 1.11 µM | – | IC50 (FFLUC_HILL_SLOPE 11.2, FFLUC_R_SQUARED 0.698, HEPG2TOX_HILL_SLOPE 0.884, HEPG2TOX_R_SQUARED 0.902, PBLUC_HILL_SLOPE 2.26, PBLUC_R_SQUARED 0.742, read-out: LUCIFERASE INFECTION ASSAY - IC50): 0.419 µM
37 | Cc1ccc(C(C)NC(=O)Cc2c(C)[nH]c(-c3ccccn3)nc2=O)cc1 (configuration not stated) | > 10 µM | – | IC50 (HEPG2TOX_HILL_SLOPE 4.86, HEPG2TOX_R_SQUARED 0.498, PBLUC_HILL_SLOPE 12, PBLUC_R_SQUARED 0.399, read-out: LUCIFERASE INFECTION ASSAY - IC50): 9.36 µM
38 | Cc1cc(C(=O)Cn2c(Cl)nc3c2c(=O)n(C)c(=O)n3C)c(C)n1-c1ccc2c(c1)OCCO2 | > 10 µM | – | IC50 (HEPG2TOX_HILL_SLOPE 4.07, HEPG2TOX_R_SQUARED 0.354, PBLUC_HILL_SLOPE 24.1, PBLUC_R_SQUARED 0.351, read-out: LUCIFERASE INFECTION ASSAY - IC50): 9.79 µM
39 | Cc1c(-c2nc3ccccc3[nH]2)c(NC(=O)C(C)C)n(Cc2ccccc2)c1C | 5.02 µM | – | IC50 (FFLUC_HILL_SLOPE 4.87, FFLUC_R_SQUARED 0.116, PBLUC_HILL_SLOPE 2.35, PBLUC_R_SQUARED 0.356, read-out: LUCIFERASE INFECTION ASSAY - IC50): 1.97 µM
40 | COc1cccc(/C=C2\Oc3c(CN4CCN(C)CC4)c(O)cc(C)c3C2=O)c1 | > 8.37 µM | > 8.37 µM | –
41 | COC(=O)c1occc1CSc1nc(NC(=O)c2ccccc2)c2c(C)c(C)oc2n1 | > 10 µM | > 10 µM | –
